Measurements taken from patent US10041937B2, “Macrophage identification agent, and identification method, sorting method, evaluation method, screening method and kit using the macrophage identifier agent” (CANON KABUSHIKI KAISHA, priority 2013, dated 2018).

What was measured:
[1] = system: M1 macrophages and M2 macrophages differentiated from THP-1 cells; assay: Identification of macrophage subtypes differentiated from human cell line THP-1; format: cell-based; conditions: for Resolution ratio R / Evaluation of macrophage subtype identification: M1 vs M2 macrophages differentiated from THP-1 cells; for Resolution ratio R: channel listed per compound (Table 6); for Evaluation of macrophage subtype identification: class based on resolution R (Table 6); for Peak position of M1 macrophage: THP-1-derived M1 macrophages; for Peak position of M1 macrophage / Peak position of M2 macrophage: fluorescence intensity peak by flow cytometry in the channel listed per compound (Table 6); for Peak position of M2 macrophage: THP-1-derived M2 macrophages; for Selectivity: subtype strongly stained, THP-1-derived macrophages (Table 6); for difference in the staining intensity between the M1 macrophages and the M2 macrophages / identification: THP-1 derived
Procedure: The fluorescent signals derived from the compounds (3), (4), (6), (7), (9), (11) to (13), (15), (17), (19) to (26), (28), (30) to (33), (35), (36), (38), (42) to (45), (48) to (62), (65), (67), (74) to (76), (82), (83) and (85) and the comparative compounds (1) and (2) were measured in channels suitable to the respective compounds. Histograms were prepared by plotting fluorescence intensities obtained in the respective channels on the abscissa and plotting the numbers of cells at each fluorescence intensity on the ordinate. A difference between a fluorescence intensity (FM1) at a peak top of the histogram of the M1 macrophage and a fluorescence intensity (FM2) at a peak top of the histogram of the M2 macrophage is divided by a sum of a peak width (WM1) of the histogram of the M1 macrophage and a peak width (WM2) of the histogram of the M2 macrophage, so as to obtain a resolution R, which was used as an index of the identification ability for a subtype (see the following expression (1)). Resolution R=|FM1−FM2|/(WM1+WM2) Expression (1)
Based on the thus obtained values of the resolution R, the identification abilities for the subtypes of the compounds (3), (4), (6), (7), (9), (11) to (13), (15), (17), (19) to (26), (28), (30) to (33), (35), (36), (38), (42) to (45), (48) to (62), (65), (67), (74) to (76), (82), (83) and (85) and the comparative compounds (1) and (2) were evaluated as any of A to C according to the following criteria, and if the resolution R was 0.15 or more, the compound was determined to be good in the subtype identification.
The subtypes were identified by using the compound (1) in the same manner as in Example 1 except that the macrophage subtypes differentiated from the mouse bone marrow cells were changed to macrophage subtypes differentiated from a cell line established from human acute monocytic leukemia.
The culture of subtypes was performed with reference to NPL 10. Specifically, THP-1 cells purchased from JCRB Cell Bank of National Institute of Biomedical Innovation, that is, a cell line established from human acute monocytic leukemia, were subcultured several times, and the resultant cells were dispersed to a concentration of 5.0×10^5/mL in an RPMI1640 containing 10% FBS and 1% P/S, and 5.0×10^6 cells were seeded in a 100 mm dish. The monocytes were differentiated into macrophages by incubating the resultant in the presence of 5% CO2 at 37° C. for 2 days with 500 ng of PMA added thereto. After exchanging the medium, by adding 200 ng of interferon-γ and 1 μg of polyliposaccharide (both manufactured by Pepro Tech) to the medium, the cells were differentiated to the subtype M1. Besides, by adding 200 ng of IL-4 and IL-13, the cells were differentiated to the subtype M2. After incubation performed in the presence of 5% CO2 at 37° C. for 24 hours, the resultant was rinsed with PBS, and PBS containing 0.25% trypsin and 1 mM EDTA (ethylenediaminetetraacetic acid) was used for collecting, from the dish, the macrophages having been differentiated to the subtypes M1 and M2.
Specifically, fluorescent signals derived from the compounds (1) (3) (4) (12) and (15) were measured by using the channels which are appropriate for each of the compounds and the identification abilities for the subtypes of the compounds were evaluated based on the values of the resolution R.

[2] = system: M1 macrophages and M2 macrophages differentiated from mouse bone marrow cells; assay: Subtype identification by staining and flow cytometry of M1 and M2 macrophages differentiated from mouse bone marrow cells; format: cell-based, Balb/c mouse; conditions: for difference in the staining intensity between the M1 macrophages and the M2 macrophages / identification: mouse bone marrow derived; for Selectivity: subtype strongly stained
Procedure, shortened: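 Balb/c mouse bone marrow cells were differentiated to macrophages with 50 ng/mL M-CSF over two 3–4-day periods, then polarized for 3 days to M1 (interferon-γ plus polyliposaccharide) or M2 (IL-4). Live cells (aqua dye-negative) were analysed by flow cytometry; resolution R = |FM1−FM2|/(WM1+WM2) from histogram peak positions and widths indexed subtype discrimination.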

[3] = system: mixture of the M1 macrophages and the M2 macrophages; assay: Sorting of subtypes from a mixture of M1 and M2 macrophages with an FACS apparatus; format: cell-based, mouse; conditions: compound 1 μM
[4] = R=|FM1−FM2|/(WM1+WM2), compound 1 μM
[5] = fluorescence intensity at peak top of histogram, compound 1 μM, 37° C., 30 minutes
[6] = M1 vs M2 macrophages from mouse bone marrow cells, general formula (6) dyes (Table 7)
[7] = class based on resolution R, general formula (6) dyes (Table 7)
[8] = mouse bone marrow-derived M1 macrophages, channel listed per compound, general formula (6) dyes (Table 7)
[9] = mouse bone marrow-derived M2 macrophages, channel listed per compound, general formula (6) dyes (Table 7)

| Structure (SMILES) | Resolution ratio R [1] | Evaluation of macrophage subtype identification [1] | Peak position of M1 macrophage [1] | Peak position of M2 macrophage [1] | Selectivity [1] | Resolution ratio R [2, 4] | Peak position of M1 macrophage [2, 5] | Peak position of M2 macrophage [2, 5] | Evaluation of macrophage subtype identification ([2]; rated from resolution R) | also measured |
| --- | --- | --- | --- | --- | --- | --- | --- | --- | --- | --- |
| O=C(O)CN1C(=O)/C(=C\c2cc(Br)c3c(c2)C2CCCC2N3c2ccc(Br)cc2)SC1=S (centres unmarked) [(12)] | 0.276 | B (the compound is good in the subtype identification (namely, the resolution R is 0.15 or more and less than 0.5)) | 37.4 | 46.5 | M2 | 0.594 | 50.7 | 97.7 | A (The compound is very good in the subtype identification (namely, the resolution R is 0.5 or more)) | – |
| CC1(C)C(/C=C/C=C/C=C/C=C2\N(CCCCS(=O)(=O)[O-])c3ccc4ccccc4c3C2(C)C)=[N+](CCCCS(=O)(=O)[O-])c2ccc3ccccc3c21.[Na+] [compound (86)] | – | – | – | – | – | – | – | – | – | sorting of identified M1 and M2 macrophages ([3]; FACS apparatus): could be each sorted with an FACS apparatus; subtype more strongly stained ([3]; mixed M1 and M2 macrophages): stain the M2 macrophages more strongly than the M1 macrophages; Resolution ratio R [2, 6]: 0.602; Evaluation of macrophage subtype identification [2, 7]: A (The compound is very good in the subtype identification (namely, the resolution R is 0.5 or more)); Peak position of M1 macrophage [2, 8]: 2.27; Peak position of M2 macrophage [2, 9]: 6.37 |
| COC(=O)CCC(C(=O)OC)N1C(=O)/C(=C\c2ccc3c(c2)C2CCCC2N3c2ccc(OC)cc2)SC1=S (centres unmarked) [compound (4)] | 0.372 | B (the compound is good in the subtype identification (namely, the resolution R is 0.15 or more and less than 0.5)) | 26.5 | 17.9 | M1 | 1.125 | 158 | 45.4 | A (The compound is very good in the subtype identification (namely, the resolution R is 0.5 or more)) | – |
| COc1ccc(N2c3ccc(/C=C4\C(=O)NC(=O)C(C#N)=C4C)cc3C3CCCC32)cc1 (centres unmarked) [(2), reference compound] | – | – | – | – | – | 0.007 | 0.86 | 1.05 | C (the compound cannot identify the subtypes (namely, the resolution R is less than 0.15)) | difference in the staining intensity between the M1 macrophages and the M2 macrophages / identification [1]: no difference in the staining intensity; difference in the staining intensity between the M1 macrophages and the M2 macrophages / identification [2]: no difference in the staining intensity |
| CCC1=C(CC)c2cc3[nH]c(cc4nc(cc5[nH]c(cc1n2)c(CC)c5CC)C(CC)=C4CC)c(CC)c3CC [(1), reference compound] | – | – | – | – | – | 0.006 | 1.70 | 1.86 | C (the compound cannot identify the subtypes (namely, the resolution R is less than 0.15)) | difference in the staining intensity between the M1 macrophages and the M2 macrophages / identification [1]: no difference in the staining intensity; Resolution ratio R [2, 6]: 0.006; Resolution ratio R ([2]; M1 vs M2 macrophages from mouse bone marrow cells, general formula (10) dyes (Table 8)): 0.006; Resolution ratio R ([2]; M1 vs M2 macrophages from mouse bone marrow cells, general formula (11) dyes (Table 9)): 0.006; Evaluation of macrophage subtype identification [2, 7]: C (the compound cannot identify the subtypes (namely, the resolution R is less than 0.15)); Evaluation of macrophage subtype identification ([2]; class based on resolution R, general formula (10) dyes (Table 8)): C (the compound cannot identify the subtypes (namely, the resolution R is less than 0.15)); Evaluation of macrophage subtype identification ([2]; class based on resolution R, general formula (11) dyes (Table 9)): C (the compound cannot identify the subtypes (namely, the resolution R is less than 0.15)); difference in the staining intensity between the M1 macrophages and the M2 macrophages / identification [2]: no difference in the staining intensity; Peak position of M1 macrophage [2, 8]: 1.70; Peak position of M1 macrophage ([2]; mouse bone marrow-derived M1 macrophages, channel listed per compound, general formula (10) dyes (Table 8)): 1.70; Peak position of M1 macrophage ([2]; mouse bone marrow-derived M1 macrophages, channel listed per compound, general formula (11) dyes (Table 9)): 1.70; Peak position of M2 macrophage [2, 9]: 1.86; Peak position of M2 macrophage ([2]; mouse bone marrow-derived M2 macrophages, channel listed per compound, general formula (10) dyes (Table 8)): 1.86; Peak position of M2 macrophage ([2]; mouse bone marrow-derived M2 macrophages, channel listed per compound, general formula (11) dyes (Table 9)): 1.86; Selectivity ([2]; general formula (6) dyes (Table 7)): No; Selectivity ([2]; general formula (10) dyes (Table 8)): No |
| O=C(O)CCN1C(=O)/C(=C\c2ccc3c(c2)C2CCCC2N3Cc2ccccc2)SC1=S (centres unmarked) [compound (3)] | 0.257 | B (the compound is good in the subtype identification (namely, the resolution R is 0.15 or more and less than 0.5)) | 9.63 | 12.3 | M2 | 0.622 | 11.2 | 25.0 | A (The compound is very good in the subtype identification (namely, the resolution R is 0.5 or more)) | – |
| CCN1c2ccc(/C=C3/SC(=S)N(CCC(=O)O)C3=O)cc2C2CCCC21 (centres unmarked) [(15)] | 0.216 | B (the compound is good in the subtype identification (namely, the resolution R is 0.15 or more and less than 0.5)) | 5.62 | 7.4 | M2 | 0.700 | 7.52 | 10.5 | A (The compound is very good in the subtype identification (namely, the resolution R is 0.5 or more)) | – |
